Experimental data reported in US4832875A, “Vitamin D3 derivative” (Taisho Pharmaceutical Co., Ltd., priority 1985, dated 1989).
Each block holds one molecule with its values, some of them ahead of it.

Key:
[1] = system: calcium level in the serum; settings: as shown in Japanese Laid-Open Patent Publication No. 44860/1986; cited from earlier work
[2] = system: calcium level in serum in vitamin D-deficient rats; assay: activity of increasing calcium level in serum in vitamin D-deficient rats (oral); assay type: in vivo, Wistar rats (male); settings: for Percent increase in serum Ca level (control 100%) / Calcium in the serum: po, once a day over 3 days; for Calcium in the serum: control (ethanol) 8.60
Source text: To confirm it in an in vivo (animal) test, however, its action of increasing the blood calcium level in vitamin D-deficient rats was examined.
Wistar rats (male, three weeks old) purchased from Japan Charles River Co. were fed 3 to 4 weeks with a vitamin D-deficient diet containing calcium (0.02%) and phosphorus (0.99%) to prepare vitamin D-deficient rats. The compound of this invention or 1,25-dihydroxy-26,27-dimethylvitamin D3 was orally administered to these animals once a day over 3 days. On the fourth day, blood was drawn from the animals, and calcium in the serum was measured by atomic absorptiometry.
As soon as the administration began, the feed was changed to one which was vitamin D-deficient but contained calcium in a normal amount (0.56%).

[3] = system: calcium level in the serum in vitamin D-deficient low-calcium rats; assay: effect of inhibiting dissolution of calcium from bones: calcium level in serum in vitamin D-deficient low-calcium rats (intravenous); assay type: in vivo, Wistar rats (male); settings: 500 P moles/100 g body weight, one intravenous administration, next day
Source text: Vitamin D has both an action of calcium deposition on bones and an action of liberating calcium from the bones, and promotes bone formation when the balance between these actions is shifted toward the former. Accordingly, a vitamin D derivative which inhibits dissolution of calcium from bones can be expected to have a very strong bone-forming action. In the present test, calcium in the feed was limited to a low level, and under conditions in which no calcium absorption from the intestinal tract occurred, the activity to increase the calcium level in the serum was examined. This activity is considered to reflect calcium dissolution from the bones.
The following test was conducted in accordance with the method of C. Kaneko et al. [C. Kaneko, S. Yamada, A. Sugimoto, M. Katuta, and S. Sasaki: Steroids, 23, 75 (1974)].
Three week old Wistar rats (male) were purchased from Japan Charles River Co., and were fed for 19 days with a feed being deficient in vitamin D and containing low calcium (0.02%) to prepare vitamin D-deficient hypocalcemia rats. An ethanol solution of an assay compound was intravenously administered once to the rats. On the next day, blood was drawn from the animals, and the calcium level in the serum was measured by atomic absorptiometry (using a double beam atomic absorption photometer made by Shimazu Seisakusho; Model AA-650).

[4] = target: T1, 1,25-dihydroxyvitamin D3 receptor in the intestines of chicken embryo (Gallus gallus, UniProt O42392); assay: receptor binding ability (in vitro), 1,25-dihydroxyvitamin D3 receptor, charcoal method
T1 sequence (O42392 1-451): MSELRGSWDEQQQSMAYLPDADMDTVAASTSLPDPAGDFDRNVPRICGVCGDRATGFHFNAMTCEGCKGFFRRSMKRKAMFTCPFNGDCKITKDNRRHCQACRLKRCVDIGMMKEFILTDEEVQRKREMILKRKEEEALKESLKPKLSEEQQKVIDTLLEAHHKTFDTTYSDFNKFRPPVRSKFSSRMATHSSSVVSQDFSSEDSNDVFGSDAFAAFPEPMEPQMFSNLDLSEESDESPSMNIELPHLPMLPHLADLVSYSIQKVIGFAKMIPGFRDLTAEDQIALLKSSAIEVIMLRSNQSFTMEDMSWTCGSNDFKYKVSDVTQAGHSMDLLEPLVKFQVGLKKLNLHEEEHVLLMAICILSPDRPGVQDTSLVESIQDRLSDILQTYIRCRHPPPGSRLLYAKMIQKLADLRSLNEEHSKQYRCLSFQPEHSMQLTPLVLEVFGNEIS
Description: The mixture was incubated at 0° C. for 3 hours.
The free assay compound and the assay compound bound to the receptor were separated by the charcoal method.

Structure (SMILES): C=C1/C(=C\C=C2/CCC[C@]3(C)[C@@H]([C@H](C)CCCC(O)(CC)CC)CC[C@@H]23)C[C@@H](O)C[C@@H]1O [1,25-Dihydroxy-26,27-dimethyl-vitamin D3, 1,25-dihydroxy-26,27-dimethylvitamin D3, reference compound]
action of increasing the calcium level in the serum compared with 1α-hydroxyvitamin D3 or 1,25-dihydroxyvitamin D3 (in words) [1]: stronger action of increasing the calcium level in the serum than 1α-hydroxyvitamin D3 or 1,25-dihydroxyvitamin D3
Percent increase in serum Ca level (control 100%) ([2]; 600 P moles/rat): 105%
Calcium in the serum ([2]; 600 P moles/rat): 9.00 mg/dL
Percent increase in serum Ca level (control 100%) ([2]; 1,200 P moles/rat): 112%
Calcium in the serum ([2]; 1,200 P moles/rat): 9.60 mg/dL

IC50 [4]: 50 nM
Structure (SMILES): C=C1/C(=C\C=C2/CCC[C@]3(C)[C@@H]([C@H](C)CCCC(F)(F)C(C)(C)O)CC[C@@H]23)C[C@@H](O)C[C@@H]1O [Compound of the invention, 1α,25-dihydroxy-24a,24a-difluoro-24-homovitamin D3]
Percent increase in serum Ca level (control 100%) ([2]; 600 P moles/rat): 114%
Calcium in the serum ([2]; 600 P moles/rat): 9.80 mg/dL
Percent increase in serum Ca level (control 100%) ([2]; 1,200 P moles/rat): 119%
Calcium in the serum ([2]; 1,200 P moles/rat): 10.20 mg/dL
activity to increase the calcium level in the serum compared with 1,25-dihydroxyvitamin D3 (in words) ([2]; inferred via 1,25-dihydroxy-26,27-dimethylvitamin D3 comparator): stronger than that of 1,25-dihydroxyvitamin D3
action of increasing the calcium level in the serum (in words) ([2]; vitamin D-deficient rats, oral): shows an action of increasing the calcium level in the serum
Percent increase in serum Ca level (control 100%) ([3]; control 100%): 94.2%
Calcium in the serum ([3]; control (ethanol) 4.47, * significant at P <0.05 vs control): 4.21 mg/dL
